Here are results for 8 molecules from ChEMBL document CHEMBL1134843, “Tyrosine kinase inhibitors. 18. 6-Substituted 4-anilinoquinazolines and 4-anilinopyrido[3,4-d]pyrimidines as soluble, irreversible inhibitors of the epidermal growth factor receptor” (J Med Chem, 2001).

A word on the IC50: it is the midpoint of a concentration-inhibition curve. Low readings indicate greater potency, high ones weaker potency. One may read the T/C as the ratio of treated to control.

The target in assay [1] is Receptor tyrosine-protein kinase erbB-2 (Homo sapiens, UniProt P04626). As to the kind of experiment: Inhibition of heregulin-stimulated autophosphorylation of erbB2 in MDA-MB 453 cells. The format is cell-based.
Assay [2] concerns the target Epidermal growth factor receptor (Homo sapiens, UniProt P00533).
Description: Inhibition of phosphorylation of a polyglutamic acid/tyrosine random copolymer by EGFR enzyme (from human A431 carcinoma cell vesicles)
In assay [3] the test system is MCF7. As to the kind of experiment: In vivo activity in MCF-7 tumor bearing mice, maximum dose (schedule 17-31 days). The format is functional.
Assay [4] concerns A-431. As to the kind of experiment: In vivo activity in A431 tumor bearing mice, maximum dose (schedule 12-26 days). Format: functional.
The test system of assay [5] is A-431. The assay can be described thus: In vivo activity in A431 tumor bearing mice, relative time required for treated and control tumors to reach 750 mg (schedule 12-26 days). The format is functional.
Assay [6] relates to MCF7. As to the kind of experiment: In vivo activity in MCF-7 tumor bearing mice, relative time required for treated and control tumors to reach 750 mg (schedule 17-31 days). The format is functional.
The test system of assay [7] is NCI-H125. As to the kind of experiment: In vivo activity in H125 tumor bearing mice, ratio of treated and control tumor mass day 29. Format: functional, Mus musculus.
The subject of assay [8] is NCI-H125. As to the kind of experiment: In vivo activity in H125 tumor bearing mice, maximum dose (schedule 15-29 days). Format: functional, Mus musculus.
For assay [9], the system named is MCF7. The assay can be described thus: In vivo activity in MCF-7 tumor bearing mice, ratio of treated and control tumor mass day 31. Format: functional.
Assay [10] has as its system NCI-H125. As to the kind of experiment: In vivo activity in H125 tumor bearing mice, relative time required for treated and control tumors to reach 750 mg (schedule 15-29 days). Format: functional, Mus musculus.
The test system of assay [11] is A-431. The assay can be described thus: In vivo activity in A431 tumor bearing mice, maximum weight loss days 12-26. The format is functional.
In assay [12] the test system is A-431. As to the kind of experiment: In vivo activity in A431 tumor bearing mice, ratio of treated and control tumor mass day 26. Format: functional.
Assay [13] relates to NCI-H125. The assay can be described thus: In vivo activity in H125 tumor bearing mice, maximum weight loss days 15-29. Format: functional, Mus musculus.
For assay [14], the system named is MCF7. As to the kind of experiment: In vivo activity in MCF-7 tumor bearing mice, ratio of treated and control tumor mass day 25. Format: functional.
The test system of assay [15] is MCF7. As to the kind of experiment: In vivo activity in MCF-7 tumor bearing mice, relative time required for treated and control tumors to reach 750 mg (schedule 11-25 days). The format is functional.
Assay [16] has as its system MCF7. The assay can be described thus: In vivo activity in MCF-7 tumor bearing mice, maximum dose (schedule 11-25 days). The format is functional.
The subject of assay [17] is A-431. As to the kind of experiment: In vivo activity in A431 tumor bearing mice, maximum dose (schedule 10-24 days). The format is functional.
Assay [18] concerns MCF7. As to the kind of experiment: In vivo activity in MCF-7 tumor bearing mice, maximum weight loss days 11-25. Format: functional.

Chain of Receptor tyrosine-protein kinase erbB-2 (P04626 whole entry): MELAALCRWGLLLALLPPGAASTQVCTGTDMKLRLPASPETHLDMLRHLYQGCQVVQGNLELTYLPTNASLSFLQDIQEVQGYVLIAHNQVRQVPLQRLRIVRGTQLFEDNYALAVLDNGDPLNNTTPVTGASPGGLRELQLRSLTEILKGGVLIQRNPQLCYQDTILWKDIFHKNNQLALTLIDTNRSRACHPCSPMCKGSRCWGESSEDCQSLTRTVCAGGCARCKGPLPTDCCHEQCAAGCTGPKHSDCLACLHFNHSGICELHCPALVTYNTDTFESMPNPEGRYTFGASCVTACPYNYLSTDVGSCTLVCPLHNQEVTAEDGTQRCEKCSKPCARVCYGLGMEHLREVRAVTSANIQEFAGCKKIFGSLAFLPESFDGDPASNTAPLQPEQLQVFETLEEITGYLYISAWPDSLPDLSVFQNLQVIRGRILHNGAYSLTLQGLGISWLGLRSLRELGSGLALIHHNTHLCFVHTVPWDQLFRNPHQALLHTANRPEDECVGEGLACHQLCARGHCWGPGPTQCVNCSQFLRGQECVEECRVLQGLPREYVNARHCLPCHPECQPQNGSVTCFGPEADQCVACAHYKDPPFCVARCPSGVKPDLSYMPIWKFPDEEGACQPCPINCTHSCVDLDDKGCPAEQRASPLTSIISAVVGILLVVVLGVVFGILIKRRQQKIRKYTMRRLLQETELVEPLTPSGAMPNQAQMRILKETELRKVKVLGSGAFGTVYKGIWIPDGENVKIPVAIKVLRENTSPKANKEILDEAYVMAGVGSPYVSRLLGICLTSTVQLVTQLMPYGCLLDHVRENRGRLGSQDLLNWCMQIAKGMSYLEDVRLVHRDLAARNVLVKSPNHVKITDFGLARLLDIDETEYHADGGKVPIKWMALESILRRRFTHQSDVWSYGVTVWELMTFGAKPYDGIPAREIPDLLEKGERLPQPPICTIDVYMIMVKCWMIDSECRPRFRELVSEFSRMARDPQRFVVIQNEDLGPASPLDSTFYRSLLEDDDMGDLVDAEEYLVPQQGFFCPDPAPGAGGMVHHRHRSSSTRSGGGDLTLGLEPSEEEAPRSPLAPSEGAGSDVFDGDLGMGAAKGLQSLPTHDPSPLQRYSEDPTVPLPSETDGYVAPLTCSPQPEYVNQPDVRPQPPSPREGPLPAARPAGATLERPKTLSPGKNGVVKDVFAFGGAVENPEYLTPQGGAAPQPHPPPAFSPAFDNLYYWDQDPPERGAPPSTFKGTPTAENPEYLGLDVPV
Chain of Epidermal growth factor receptor (P00533 whole entry): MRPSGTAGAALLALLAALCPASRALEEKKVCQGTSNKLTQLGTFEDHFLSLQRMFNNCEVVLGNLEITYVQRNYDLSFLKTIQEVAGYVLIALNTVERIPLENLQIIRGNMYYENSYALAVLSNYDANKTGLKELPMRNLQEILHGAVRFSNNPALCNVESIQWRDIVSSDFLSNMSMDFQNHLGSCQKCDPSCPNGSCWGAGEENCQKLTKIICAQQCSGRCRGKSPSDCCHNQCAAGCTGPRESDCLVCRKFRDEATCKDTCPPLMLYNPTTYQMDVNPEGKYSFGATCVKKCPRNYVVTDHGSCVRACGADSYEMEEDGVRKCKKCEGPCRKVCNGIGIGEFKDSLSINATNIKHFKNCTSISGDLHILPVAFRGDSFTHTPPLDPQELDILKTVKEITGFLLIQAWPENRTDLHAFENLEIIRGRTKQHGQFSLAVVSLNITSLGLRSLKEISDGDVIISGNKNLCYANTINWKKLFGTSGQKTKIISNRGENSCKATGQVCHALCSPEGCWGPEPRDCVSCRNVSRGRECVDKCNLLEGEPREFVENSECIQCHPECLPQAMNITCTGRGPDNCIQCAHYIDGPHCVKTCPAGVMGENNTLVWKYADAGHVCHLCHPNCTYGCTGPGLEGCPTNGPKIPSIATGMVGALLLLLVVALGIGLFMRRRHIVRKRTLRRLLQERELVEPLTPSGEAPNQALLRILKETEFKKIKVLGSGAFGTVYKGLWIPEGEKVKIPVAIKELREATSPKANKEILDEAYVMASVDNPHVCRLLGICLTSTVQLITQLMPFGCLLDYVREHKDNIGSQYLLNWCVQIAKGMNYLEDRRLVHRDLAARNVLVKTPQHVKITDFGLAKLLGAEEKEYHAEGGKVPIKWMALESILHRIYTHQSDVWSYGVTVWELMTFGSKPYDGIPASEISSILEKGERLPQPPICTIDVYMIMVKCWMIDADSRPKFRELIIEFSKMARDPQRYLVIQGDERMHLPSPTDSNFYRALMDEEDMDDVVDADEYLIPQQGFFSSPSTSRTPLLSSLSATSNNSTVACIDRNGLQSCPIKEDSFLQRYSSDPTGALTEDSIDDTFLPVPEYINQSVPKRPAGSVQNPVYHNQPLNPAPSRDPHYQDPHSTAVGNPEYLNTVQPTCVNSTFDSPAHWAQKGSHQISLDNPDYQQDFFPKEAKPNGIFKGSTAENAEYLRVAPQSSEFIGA

In assay [1], `CN(C)CCCNC(=O)/C=C/C(=O)Nc1ccc2ncnc(Nc3cccc(Br)c3)c2c1` displayed an IC50 of 207 nM.

Consider `O=S(=O)(CCO)c1cc2c(Nc3cccc(Br)c3)ncnc2cn1`, for which the 50% inhibitory concentration (IC50) in [2] worked out at 93.5 nM.

The molecule `CCN(CC)CCCNC(=O)/C=C/C(=O)Nc1cc2c(Nc3cccc(Br)c3)ncnc2cn1` registered an IC50 in assay [1] of 14 nM.

Molecule `O=C(/C=C/C(=O)Nc1cc2c(Nc3cccc(Br)c3)ncnc2cn1)NCCCN1CCOCC1` gave an IC50 in [1] of 5 nM.

For the molecule `O=C(/C=C/C(=O)Nc1cc2c(Nc3ccc(F)c(Cl)c3)ncnc2cn1)NCCCN1CCOCC1`, the HDT with MCF7 [3], in the assay with A-431 [4] and with NCI-H125 [8] was 200 mg/kg throughout. In addition, the figures for the T-C in the assay on A-431 [5], in the assay on MCF7 [6] and with NCI-H125 [10] were 5.2 days, 6.8 days and 7.9 days, respectively. Further, the T/C is on record as 23% with NCI-H125 [7], 124% in the assay with MCF7 [9] and 70% with A-431 [12]. For the same molecule, 24 nM corresponded to half-maximal inhibition in assay [1] (IC50). The Weight change was -0.1 g with A-431 [11] and -0.3 g in the assay on NCI-H125 [13].

Turning to `O=C(/C=C/C(=O)Nc1cc2c(Nc3cccc(Br)c3)ncnc2cn1)NCCCn1ccnc1`, the IC50 in assay [1] amounted to 8.1 nM.

Regarding `C=CC(=O)N(C)c1cc2c(Nc3cccc(Br)c3)ncnc2cn1`, the T/C turned out to be 88% in the assay on MCF7 [14], 56% in the assay on NCI-H125 [7] and 62% in the assay with A-431 [12]. In addition, the results for the T-C with A-431 [5], in the assay on MCF7 [15] and in the assay on NCI-H125 [10] were 5.2 days, 1.5 days and 7.3 days, respectively. In addition, the HDT with MCF7 [16], in the assay with A-431 [17] and in the assay with NCI-H125 [8] was 200 mg/kg in each case. In addition, the Weight change in the assay with MCF7 [18] was -0.3 g; with A-431 [11], -0.1 g; in the assay on NCI-H125 [13], -0.4 g.

In assay [1], `CN(C)CCCNC(=O)/C=C/C(=O)Nc1cc2c(Nc3cccc(Br)c3)ncnc2cn1` had an IC50 of 13 nM.
